The data set deals with rebuilt skin (for example Epiderm, Episkin or Skinethic). In words: Penetration rate of 5,6-dihydroxyindole through rebuilt skin in static diffusion cells, VIS spectrophotometry of oxidation products. The format is in vitro ADME. The conditions noted are these: 5 mM final concentration, 16 hour coating at an infinite dose. On the procedure: The 5,6-dihydroxyindole mixture with the system limiting the transcutaneous passage has been prepared fresh by adding an system equivalent volume (=1 mM MnCl2 in 1 M NaHCO3; pH=10) to an aqueous solution of 10 mM 5,6-dihydroxyindole. Then, it has been coated on rebuilt skin (for example Epiderm® from Mattek, Inc., Episkin® from Episkin SNC or Skinethic® from Skinethic Laboratories) placed in diffusion cells in a static diffusion mode at a dose of 250 mg·cm^2 for 16 hours. The analysis of the penetration rates of 5,6-dihydroxyindole through the skin has been conducted through VIS spectrophotometry through the oxidation products thereof. The 5,6-dihydroxyindole range has been prepared as follows. A plurality of dilutions from 0 to 0.5 mM 5,6-dihydroxindole in receiving liquid has been left for 16 hours at 32° C. for forming oxidation products in the form of a pigment. Such pigments absorb visible light (VIS) (“scattering” effect) depending on their concentration, which is directly related to the initial 5,6-dihydroxyindole concentration. Thus, the 5,6-dihydroxyindol range has been obtained through VIS absorption of such pigments formed after 5,6-dihydroxyindole oxydation. A 1:1 mixture between 10 mM 5,6-dihydroxyindole and distilled water has been used as a control. […]

Regarding `Oc1cc2cc[nH]c2cc1O` [5,6-dihydroxyindole], the “penetration rate of the 5,6-dihydroxyindole” value runs as follows: (with no system (control mixture, 1:1 with distilled water)) “approximately 3 % of the dose coated”; (with the system (1 mM MnCl2 in 1 M NaHCO3, pH 10, equivalent volume)) “lower than 0.5%”.
